# Where a SMILES comes first, the peptide text is derived from it.
# How the values were obtained:
# Melanocortin receptor 3 = Melanocortin receptor 3 (Homo sapiens, UniProt P41968)
# D(1A) dopamine receptor = D(1A) dopamine receptor (Homo sapiens, UniProt P21728); type: functional, cell-based
# [1] = target: T1, 5-hydroxytryptamine receptor 1A (Homo sapiens, UniProt P08908); type: functional, cell-based
# T1 sequence (P08908 whole entry): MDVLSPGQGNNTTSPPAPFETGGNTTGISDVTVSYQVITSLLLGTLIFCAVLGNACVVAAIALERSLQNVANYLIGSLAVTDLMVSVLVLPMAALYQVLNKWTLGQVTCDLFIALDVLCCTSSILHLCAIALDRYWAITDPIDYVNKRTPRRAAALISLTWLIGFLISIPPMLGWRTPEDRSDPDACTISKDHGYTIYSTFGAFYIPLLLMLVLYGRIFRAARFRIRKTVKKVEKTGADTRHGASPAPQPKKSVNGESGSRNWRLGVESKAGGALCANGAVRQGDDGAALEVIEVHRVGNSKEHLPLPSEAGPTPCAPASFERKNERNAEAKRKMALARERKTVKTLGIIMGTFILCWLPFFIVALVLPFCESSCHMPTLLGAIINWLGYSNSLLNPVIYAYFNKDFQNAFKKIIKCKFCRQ
# Histamine H2 receptor = Histamine H2 receptor (Homo sapiens, UniProt P25021); type: functional, cell-based
# Chain of Histamine H2 receptor (P25021 whole entry): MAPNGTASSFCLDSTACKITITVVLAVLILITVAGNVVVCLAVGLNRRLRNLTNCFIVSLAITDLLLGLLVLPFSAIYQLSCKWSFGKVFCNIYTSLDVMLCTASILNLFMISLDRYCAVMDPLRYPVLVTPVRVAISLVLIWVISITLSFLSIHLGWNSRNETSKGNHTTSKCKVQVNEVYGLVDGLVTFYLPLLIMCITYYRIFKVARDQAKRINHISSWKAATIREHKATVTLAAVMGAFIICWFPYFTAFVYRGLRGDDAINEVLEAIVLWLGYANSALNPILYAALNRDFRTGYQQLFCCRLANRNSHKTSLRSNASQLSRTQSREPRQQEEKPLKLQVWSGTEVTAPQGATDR
# Progesterone receptor = target: T2, Progesterone receptor (Homo sapiens, UniProt P06401); type: functional
# T2 sequence (P06401 whole entry): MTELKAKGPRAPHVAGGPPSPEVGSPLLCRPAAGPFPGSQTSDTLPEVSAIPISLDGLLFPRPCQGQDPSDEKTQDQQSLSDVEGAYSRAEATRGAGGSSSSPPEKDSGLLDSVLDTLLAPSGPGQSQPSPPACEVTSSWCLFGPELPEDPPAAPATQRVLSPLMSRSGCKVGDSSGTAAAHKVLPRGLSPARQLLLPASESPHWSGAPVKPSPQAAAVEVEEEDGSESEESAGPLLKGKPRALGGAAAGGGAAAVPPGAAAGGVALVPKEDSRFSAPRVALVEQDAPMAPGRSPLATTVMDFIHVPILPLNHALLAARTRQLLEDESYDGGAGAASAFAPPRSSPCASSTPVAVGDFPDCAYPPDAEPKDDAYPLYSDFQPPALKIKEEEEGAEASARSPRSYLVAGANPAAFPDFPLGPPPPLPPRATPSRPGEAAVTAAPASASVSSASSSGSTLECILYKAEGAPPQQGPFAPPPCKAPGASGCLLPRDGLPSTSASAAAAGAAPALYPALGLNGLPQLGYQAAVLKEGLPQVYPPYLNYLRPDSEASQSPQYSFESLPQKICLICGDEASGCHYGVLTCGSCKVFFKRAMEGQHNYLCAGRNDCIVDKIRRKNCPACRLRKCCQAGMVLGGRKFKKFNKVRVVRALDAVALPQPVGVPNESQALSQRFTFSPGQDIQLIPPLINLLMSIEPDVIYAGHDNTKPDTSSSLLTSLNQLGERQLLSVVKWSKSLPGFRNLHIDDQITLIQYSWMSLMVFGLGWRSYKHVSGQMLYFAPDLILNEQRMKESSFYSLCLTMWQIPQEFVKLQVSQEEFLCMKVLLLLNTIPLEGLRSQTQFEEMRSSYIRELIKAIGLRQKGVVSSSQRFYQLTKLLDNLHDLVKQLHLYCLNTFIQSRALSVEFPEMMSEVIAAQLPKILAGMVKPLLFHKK
# [2] = target: T3, Equilibrative nucleoside transporter 1 (Homo sapiens, UniProt Q99808)
# T3 sequence (Q99808 whole entry): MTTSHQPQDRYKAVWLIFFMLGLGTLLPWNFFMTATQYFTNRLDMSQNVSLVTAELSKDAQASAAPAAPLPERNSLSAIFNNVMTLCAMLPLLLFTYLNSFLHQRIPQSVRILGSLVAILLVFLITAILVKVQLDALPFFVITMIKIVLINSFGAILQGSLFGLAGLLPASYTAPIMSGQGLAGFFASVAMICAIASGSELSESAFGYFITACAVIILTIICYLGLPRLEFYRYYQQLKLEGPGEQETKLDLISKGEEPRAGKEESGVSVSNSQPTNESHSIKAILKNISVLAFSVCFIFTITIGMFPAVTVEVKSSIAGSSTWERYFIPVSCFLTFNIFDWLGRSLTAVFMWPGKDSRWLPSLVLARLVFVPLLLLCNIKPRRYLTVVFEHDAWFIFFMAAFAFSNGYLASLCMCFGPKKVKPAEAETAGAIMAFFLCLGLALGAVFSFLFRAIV
# [3] = target: Gamma-aminobutyric acid receptor subunit alpha-1 (Rattus norvegicus, UniProt P62813)
# Chain of Gamma-aminobutyric acid receptor subunit alpha-1 (P62813 whole entry): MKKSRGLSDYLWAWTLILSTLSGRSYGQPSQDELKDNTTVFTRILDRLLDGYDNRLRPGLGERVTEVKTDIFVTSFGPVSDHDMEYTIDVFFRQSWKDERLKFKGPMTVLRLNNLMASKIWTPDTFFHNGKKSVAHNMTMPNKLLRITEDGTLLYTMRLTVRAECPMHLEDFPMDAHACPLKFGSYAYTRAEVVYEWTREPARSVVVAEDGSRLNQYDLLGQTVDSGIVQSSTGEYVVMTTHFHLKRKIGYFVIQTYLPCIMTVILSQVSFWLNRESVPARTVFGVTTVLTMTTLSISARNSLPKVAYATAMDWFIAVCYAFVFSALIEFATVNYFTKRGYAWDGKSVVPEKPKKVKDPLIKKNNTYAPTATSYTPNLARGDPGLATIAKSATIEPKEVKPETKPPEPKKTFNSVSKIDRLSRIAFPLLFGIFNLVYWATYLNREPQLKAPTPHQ
# [4] = target: T4, 5-hydroxytryptamine receptor 3A (Homo sapiens, UniProt P46098); type: functional
# T4 sequence (P46098 whole entry): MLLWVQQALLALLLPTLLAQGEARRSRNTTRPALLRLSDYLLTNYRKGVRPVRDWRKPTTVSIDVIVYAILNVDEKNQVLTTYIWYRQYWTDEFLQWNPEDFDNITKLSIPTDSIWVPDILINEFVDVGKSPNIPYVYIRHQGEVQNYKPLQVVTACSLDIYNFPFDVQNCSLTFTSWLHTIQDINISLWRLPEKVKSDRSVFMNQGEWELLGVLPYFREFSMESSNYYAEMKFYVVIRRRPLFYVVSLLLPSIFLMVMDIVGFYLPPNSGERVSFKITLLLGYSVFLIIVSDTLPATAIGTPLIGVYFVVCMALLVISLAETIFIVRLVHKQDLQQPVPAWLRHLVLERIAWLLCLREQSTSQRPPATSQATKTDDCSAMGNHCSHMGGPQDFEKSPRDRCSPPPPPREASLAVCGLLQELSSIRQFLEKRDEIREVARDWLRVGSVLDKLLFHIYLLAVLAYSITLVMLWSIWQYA
# Thromboxane A2 receptor = target: T5, Thromboxane A2 receptor (Homo sapiens, UniProt P21731)
# T5 sequence (P21731 whole entry): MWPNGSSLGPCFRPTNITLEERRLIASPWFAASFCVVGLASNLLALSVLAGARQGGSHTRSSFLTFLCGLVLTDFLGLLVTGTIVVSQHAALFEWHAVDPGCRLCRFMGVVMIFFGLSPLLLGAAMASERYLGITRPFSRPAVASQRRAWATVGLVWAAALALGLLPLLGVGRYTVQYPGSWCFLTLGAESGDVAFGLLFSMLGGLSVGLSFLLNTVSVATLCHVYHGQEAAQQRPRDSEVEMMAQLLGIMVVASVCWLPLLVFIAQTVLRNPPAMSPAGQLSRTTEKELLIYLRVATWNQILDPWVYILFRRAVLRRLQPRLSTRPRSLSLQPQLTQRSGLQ
# Further: assay procedure not described here.
# Chain of D(1A) dopamine receptor (P21728 whole entry): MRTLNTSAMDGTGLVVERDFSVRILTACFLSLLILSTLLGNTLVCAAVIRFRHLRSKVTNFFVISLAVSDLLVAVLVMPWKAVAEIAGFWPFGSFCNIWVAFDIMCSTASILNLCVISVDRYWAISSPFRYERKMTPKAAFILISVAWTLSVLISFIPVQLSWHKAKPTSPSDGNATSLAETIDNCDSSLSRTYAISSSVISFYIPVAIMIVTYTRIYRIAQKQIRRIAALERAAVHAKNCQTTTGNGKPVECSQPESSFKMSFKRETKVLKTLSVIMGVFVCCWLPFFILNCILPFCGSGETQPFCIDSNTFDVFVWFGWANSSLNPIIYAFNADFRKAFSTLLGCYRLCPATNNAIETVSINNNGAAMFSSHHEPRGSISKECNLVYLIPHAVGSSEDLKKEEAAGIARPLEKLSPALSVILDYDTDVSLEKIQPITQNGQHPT
# Chain of Melanocortin receptor 3 (P41968 whole entry): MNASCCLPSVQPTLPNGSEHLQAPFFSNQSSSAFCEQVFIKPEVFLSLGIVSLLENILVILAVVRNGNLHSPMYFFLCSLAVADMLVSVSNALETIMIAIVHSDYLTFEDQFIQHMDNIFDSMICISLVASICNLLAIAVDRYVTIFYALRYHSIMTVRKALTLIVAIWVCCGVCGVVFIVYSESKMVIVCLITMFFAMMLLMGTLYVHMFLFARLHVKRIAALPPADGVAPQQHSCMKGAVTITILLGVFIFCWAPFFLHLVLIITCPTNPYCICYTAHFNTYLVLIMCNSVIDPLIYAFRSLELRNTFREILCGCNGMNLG
SMILES,AC50 (Melanocortin receptor 3) [µM],AC50 (D(1A) dopamine receptor) [µM],AC50 [1] [µM],AC50 (Histamine H2 receptor) [µM],AC50 (Progesterone receptor) [µM],AC50 [2] [µM],AC50 [3] [µM],AC50 [4] [µM],AC50 (Thromboxane A2 receptor) [µM]
COC(=O)c1ccc2c(c1)NC(=O)/C2=C(\Nc1ccc(N(C)C(=O)CN2CCN(C)CC2)cc1)c1ccccc1 [NINTEDANIB],> 30,> 30,> 30,> 30,> 30,> 30,> 30,> 30,–
C[C@H](N)C(=O)N[C@@H](CCC(N)=O)C(=O)O [ALANYL GLUTAMINE] (H-Ala-Gln-OH),> 30,> 30,> 30,> 30,> 30,> 30,> 30,> 30,> 30
O=C(O)c1ccc2nc(-c3cc(Cl)cc(Cl)c3)oc2c1,> 30,12,> 30,> 30,> 30,> 30,> 30,> 30,> 30
CO/N=C(\C(=O)N[C@@H]1C(=O)N2C(C(=O)O)=C(CSc3nc(C)c(CC(=O)O)s3)CS[C@H]12)c1csc(N)n1 [CEFODIZIME],> 30,> 30,> 30,> 30,> 30,> 30,> 30,> 30,> 30
CC(=O)N1CCN(c2ccc(OCC3COC(Cn4ccnc4)(c4ccc(Cl)cc4Cl)O3)cc2)CC1 (stereo unspecified) [KETOCONAZOLE],> 10,> 10,> 10,> 10,> 10,35.2,> 10,> 30,> 10
CCCCCCOC(=O)NC(=N)c1ccc(NCc2nc3cc(C(=O)N(CCC(=O)OCC)c4ccccn4)ccc3n2C)cc1 [DABIGATRAN ETEXILATE],> 30,> 30,> 30,> 30,> 30,> 30,–,> 30,–

# Other lines, results leading:
AC50 (Melanocortin receptor 3) [µM],AC50 (D(1A) dopamine receptor) [µM],AC50 [1] [µM],AC50 (Histamine H2 receptor) [µM],AC50 (Progesterone receptor) [µM],AC50 [2] [µM],AC50 [3] [µM],AC50 [4] [µM],AC50 (Thromboxane A2 receptor) [µM],SMILES
> 30,> 30,> 30,> 30,> 30,> 30,> 30,> 30,> 30,CCc1ccc(C(=O)C(C)CN2CCCCC2)cc1 (stereo unspecified) [EPERISONE]
> 10,> 10,> 10,> 10,> 10,> 10,> 10,> 30,> 10,CC(C)(C)NCC(O)COc1cccc2c1CC(O)C(O)C2 (stereo unspecified) [NADOLOL]
> 30,> 30,> 30,> 30,> 30,> 30,–,> 30,–,CC1=C(C(=O)O)N2C(=O)[C@@H](NC(=O)[C@H](N)C3=CCC=CC3)[C@H]2SC1 [CEPHRADINE]

# Reference: ChEMBL document CHEMBL5291721, “A preclinical secondary pharmacology resource illuminates target-adverse drug reaction associations of marketed drugs” (Nat Commun, 2023)
